# Data taken from patent publication US10806798B2, “Compound with effects of thrombolysis, free radical scavenging and thrombus-targeting” (Shanghai Lumosa Therapeutics Co., Ltd., priority 2012, dated 2020).
# Tested on: rats with stroke
# Experiment: Immediate treatment after stroke onset with different dosages of Ie (Zealonga scores)
# Assay type: in vivo, SD rats
# Protocol: A 10% chloral hydrate solution (400 mg/kg) was injected intraperitoneally into male SD rats (250 to 300 g) for anesthesia. An incision of about 2 cm in length was longitudinally made slightly on the right to the center of the neck, and the right carotid common artery, carotid external artery and carotid internal artery were dissected along the margin of the inner side of sternocleidomastoid muscles. The open incision in the carotid internal artery and the proximal end of the common carotid artery were occluded respectively with noninvasive arterial clips. A small incision was made on the carotid external artery, and the distal end of the carotid external artery was ligated. The arterial clip at the proximal end of the carotid external artery was released, and 10 μl blood was drawn before the proximal end of the common carotid artery was again occluded with a noninvasive arterial clip. The 10 μl blood drawn was placed in a 1 mL EP vial and kept at RT for 30 min until coagulation of blood, and then transferred into a −20° C. refrigerator for 1 h to allow solid coagulation. After 1 h, the blood clots were taken out, added into 1 mL saline, and then broken into relatively uniform microthrombus by using a steel spatula. The microthrombus suspension was then transferred into a 1 mL injector until use. At the same time when the clip on the carotid internal artery of the rat was released, the 1 mL thrombus suspension in the injector was slowly injected from the carotid external artery of the rat to its proximal end, and then was injected into the brain of the rat through the carotid internal artery. Subsequently, the proximal end of the carotid external artery was ligated, the arterial clips on the carotid internal artery and the carotid common artery were released, and blood flow was restored. Injection of urokinase in normal saline (positive control group, at a dosage of 20000 IU/kg), tPA in normal saline (positive control group, at a dosage of 3 mg/kg), normal saline (blank control group, at a dosage of 3 mL/kg), or compound Ie in normal saline (at a dosage of 1 μmol/kg, 0.1 μmol/kg or 0.01 μmol/kg) was carried out. 24 h after the rats were awake, the degree of damage in neural function was evaluated by the Zealonga method. A score of 0 indicated no sign of loss in neural function, 1 indicated the front limbs on the undamaged side could not stretch out, 2 indicated walking toward the undamaged side, 3 indicated tail-chasing walking in circles toward the undamaged side, 4 indicated involuntary walking with disturbance of consciousness, and 5 indicated death. As shown in the results, in rats receiving immediate treatment after the onset of stroke with […] compound Ie, the percentage of rats with a neural function score of 0 was 60%, 30%, and 0%, respectively; and the percentage of rats with a neural function score of 1 was 20%, 30%, and 10%, respectively.
substance,measurement,setting,value
urokinase,percentage of rats with a neural function score of 0,20000 IU/kg urokinase,10%
same,percentage of rats with a neural function score of 1,20000 IU/kg urokinase,50%
same,number of rats scored Score 0,"urokinase 20000 IU/kg, n = 10",1
same,number of rats scored Score 1,"urokinase 20000 IU/kg, n = 10",5
same,number of rats scored Score 2,"urokinase 20000 IU/kg, n = 10",0
same,number of rats scored Score 3,"urokinase 20000 IU/kg, n = 10",3
same,number of rats scored Score 4,"urokinase 20000 IU/kg, n = 10",1
same,number of rats scored Score 5,"urokinase 20000 IU/kg, n = 10",0
